Test results published in article PMC5891061, “Electrophysiological mechanisms of vandetanib-induced cardiotoxicity: Comparison of action potentials in rabbit Purkinje fibers and pluripotent stem cell-derived cardiomyocytes” (PLoS ONE, 2018).

How the values were obtained:
INa in hiPSC-CMs = INa in hiPSC-CMs (Homo sapiens, UniProt Q14524); assay: INa current in hiPSC-CMs (voltage clamp); assay type: cell-based; parameters: INa current: unit not given here
hiPSC-CMs = assay: Spontaneous action potential recording in hiPSC-CMs (whole-cell current clamp); assay type: cell-based, human
Method: The hiPSC-CMs from human fibroblast cell lines (iCell Cardiomyocytes; Cellular Dynamics International, Madison, WI, USA) were purchased and cultured for single-cell electrophysiological recordings. Frozen vials of hiPSC-CMs were thawed in a water bath maintained at 37°C and mixed with ice-cold plating medium (iCell Cardiomyocyte Plating Medium, glucose-free). The cells were transferred to four-well culture plates containing 0.1% gelatin-coated glass coverslips and then maintained in a culture incubator at 37°C in an atmosphere of 93% air and 7% CO2. After 2 days of culture, the plating medium was replaced with culture medium (iCell Cardiomyocyte Maintenance Medium, glucose-free), which was then changed every 2 days. The hiPSC-CMs were cultured for 4 weeks and used at 7 to 28 days post-thaw for electrophysiological analysis. At this time, the amplitudes and intervals of the spontaneous APs are stabilized, and electrically connected syncytial layers are formed. […] The internal solution contained (in mM) 120 K-Asp, 20 KCl, 5 NaCl, 2 CaCl2, 10 HEPES, 5 EGTA, and 5 Mg-ATP (pH 7.25). We recorded typical APs in hiPSC-CMs in the current-clamp mode. The spontaneous beating activity or paced firing of single hiPSC-CMs were recorded, and only hiPSC-CMs that could beat stably were included in the analysis. Following stabilization of the AP waveforms, the average of six recorded APs for each test concentration was analyzed.
Using the patch-clamp technique, we measured the APs in spontaneously contracting cells isolated from hiPSC-CMs. […] Ventricular-type APs were distinguished based on the relatively more negative maximal diastolic potential (MDP) and rapid AP upstroke with long plateau phase.

Chain of INa in hiPSC-CMs (Q14524 212-1075 limits assumed): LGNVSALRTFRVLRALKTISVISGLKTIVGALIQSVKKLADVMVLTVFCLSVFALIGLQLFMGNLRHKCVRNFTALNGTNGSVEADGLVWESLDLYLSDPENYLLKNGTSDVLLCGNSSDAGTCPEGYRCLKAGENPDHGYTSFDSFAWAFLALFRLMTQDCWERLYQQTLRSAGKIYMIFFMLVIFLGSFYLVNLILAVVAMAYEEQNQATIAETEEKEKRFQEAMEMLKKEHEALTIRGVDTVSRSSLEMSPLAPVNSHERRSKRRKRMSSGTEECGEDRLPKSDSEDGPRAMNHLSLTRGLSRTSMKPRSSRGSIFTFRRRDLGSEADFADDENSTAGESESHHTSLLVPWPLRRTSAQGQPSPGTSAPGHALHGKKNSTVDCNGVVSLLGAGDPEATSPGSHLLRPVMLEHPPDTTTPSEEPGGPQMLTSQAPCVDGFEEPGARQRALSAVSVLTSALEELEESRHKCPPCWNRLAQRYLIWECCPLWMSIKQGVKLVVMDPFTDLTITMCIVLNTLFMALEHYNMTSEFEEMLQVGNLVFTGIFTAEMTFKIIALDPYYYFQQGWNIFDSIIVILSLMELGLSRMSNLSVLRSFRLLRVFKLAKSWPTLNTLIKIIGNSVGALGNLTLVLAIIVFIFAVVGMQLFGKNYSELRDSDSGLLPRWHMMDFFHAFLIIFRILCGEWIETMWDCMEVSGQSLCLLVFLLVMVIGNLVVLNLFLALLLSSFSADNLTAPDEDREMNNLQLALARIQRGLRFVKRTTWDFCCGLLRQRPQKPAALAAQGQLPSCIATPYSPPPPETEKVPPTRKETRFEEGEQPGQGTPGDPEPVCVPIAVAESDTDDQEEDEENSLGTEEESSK
Chain of INa in hiPSC-CMs (Q14524 1131-2016 limits assumed): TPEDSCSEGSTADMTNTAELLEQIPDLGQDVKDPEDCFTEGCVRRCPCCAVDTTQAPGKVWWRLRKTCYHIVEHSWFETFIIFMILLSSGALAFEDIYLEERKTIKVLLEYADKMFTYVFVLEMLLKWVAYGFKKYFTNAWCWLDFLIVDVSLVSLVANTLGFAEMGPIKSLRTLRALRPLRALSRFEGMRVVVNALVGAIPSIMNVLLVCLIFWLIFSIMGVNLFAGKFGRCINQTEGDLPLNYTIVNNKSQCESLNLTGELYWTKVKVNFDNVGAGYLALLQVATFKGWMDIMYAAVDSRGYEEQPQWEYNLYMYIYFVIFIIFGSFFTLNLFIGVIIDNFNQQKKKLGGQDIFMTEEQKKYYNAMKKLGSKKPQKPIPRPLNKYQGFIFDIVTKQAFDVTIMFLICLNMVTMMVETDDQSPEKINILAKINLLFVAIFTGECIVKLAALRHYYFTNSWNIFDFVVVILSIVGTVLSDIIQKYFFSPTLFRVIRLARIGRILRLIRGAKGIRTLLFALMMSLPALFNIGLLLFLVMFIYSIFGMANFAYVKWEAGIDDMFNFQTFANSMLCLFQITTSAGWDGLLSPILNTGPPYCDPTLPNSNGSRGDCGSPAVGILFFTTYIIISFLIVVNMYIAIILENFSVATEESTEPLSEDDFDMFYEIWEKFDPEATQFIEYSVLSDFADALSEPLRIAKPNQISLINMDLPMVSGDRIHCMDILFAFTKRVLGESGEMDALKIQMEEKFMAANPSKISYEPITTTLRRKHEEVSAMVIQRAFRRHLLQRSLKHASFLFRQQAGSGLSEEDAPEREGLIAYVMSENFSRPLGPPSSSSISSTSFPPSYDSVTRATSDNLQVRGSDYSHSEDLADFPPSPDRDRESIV

With `COc1cc2c(Nc3ccc(Br)cc3F)ncnc2cc1OCC1CCN(C)CC1` [Vandetanib] the IC50 (INa in hiPSC-CMs) was 2720 nM, the INa current (INa in hiPSC-CMs; 1 μM) was -4046.1 ± 53.7 and the INa current (INa in hiPSC-CMs; 3 μM) was -2284.0 ± 79.5. The INa current (INa in hiPSC-CMs; 10 μM) was -1205.7 ± 89.8, the INa current (INa in hiPSC-CMs; 30 μM) was -643.2 ± 33.6 and the APA (hiPSC-CMs; 0.3 μM) was 104.2 ± 3.0 mV. For the same molecule, the APD50 (hiPSC-CMs; 0.3 μM) was 349.3 ± 50.9 ms, the APD90 (hiPSC-CMs; 0.3 μM) was 481.0 ± 53.9 ms and the MDP (hiPSC-CMs; 0.3 μM) was -66.9 ± 2.3 mV. For the same molecule, the Vmax (hiPSC-CMs; 0.3 μM) was 40.3 ± 13.9 V/s, the APA (hiPSC-CMs; 1 μM) was 105.5 ± 3.6 mV and the APD50 (hiPSC-CMs; 1 μM) was 596.4 ± 158.8 ms. It also gave an APD90 (hiPSC-CMs; 1 μM) of 880.9 ± 192.6 ms, an MDP (hiPSC-CMs; 1 μM) of -64.5 ± 2.4 mV and a Vmax (hiPSC-CMs; 1 μM) of 36.0 ± 13.0 V/s. For the same molecule, the APA (hiPSC-CMs; 3 μM) was 100.7 ± 2.2 mV, the APD50 (hiPSC-CMs; 3 μM) was 1243.0 ± 386.1 ms and the APD90 (hiPSC-CMs; 3 μM) was 2047.9 ± 597.1 ms. For the same molecule, the “Decrease of APA compared to vehicle control” value (hiPSC-CMs; 3 μM) was 4.2%, the “Decrease of MDP compared to vehicle control” value (hiPSC-CMs; 3 μM) was 9% and the MDP (hiPSC-CMs; 3 μM) was -61.0 ± 1.5 mV. The Vmax (hiPSC-CMs; 3 μM) was 19.5 ± 6.5 V/s, the “Early after depolarization (EAD)” value (hiPSC-CMs; 3 μM, n = 6 cells) was “induced at 3 μM of vandetanib in all cells tested” and the “Concentration from which prolongation of APD50 and APD90 was observed” value (hiPSC-CMs; tested 0.3, 1, 3 μM) was ≥ 1 µM.
